The kinase profiling compilation of Christmann-Franck et al. (2016)

Assays:
Assay in all cases: KINOMEscan competition binding
Details in all cases: compound 10.0 µM
SIK2 (human) = SIK2 (human) (UniProt Q9H0K1)
CDK5 (human) = CDK5 (human) (UniProt Q00535)
RPS6KA5 KD1 (human) = RPS6KA5 KD1 (human) (UniProt O75582)
[1] = system: EGFR (human), P00533 [T790M/L858R]
LCK (human) = LCK (human) (UniProt P06239)
GAK (human) = GAK (human) (UniProt O14976)
MELK (human) = MELK (human) (UniProt Q14680)
[2] = system: EGFR (human), P00533 [752-759 del]
MAP3K7 (human) = MAP3K7 (human) (UniProt O43318)
ADCK4 (human) = ADCK4 (human) (UniProt Q96D53)
STK11 (human) = STK11 (human) (UniProt Q15831)
CAMK2B (human) = CAMK2B (human) (UniProt Q13554)
GRK1 (human) = GRK1 (human) (UniProt Q15835)
MAK (human) = MAK (human) (UniProt P20794)
NTRK1 (human) = NTRK1 (human) (UniProt P04629)
Chain of NTRK1 (human) (P04629 whole entry, looked up): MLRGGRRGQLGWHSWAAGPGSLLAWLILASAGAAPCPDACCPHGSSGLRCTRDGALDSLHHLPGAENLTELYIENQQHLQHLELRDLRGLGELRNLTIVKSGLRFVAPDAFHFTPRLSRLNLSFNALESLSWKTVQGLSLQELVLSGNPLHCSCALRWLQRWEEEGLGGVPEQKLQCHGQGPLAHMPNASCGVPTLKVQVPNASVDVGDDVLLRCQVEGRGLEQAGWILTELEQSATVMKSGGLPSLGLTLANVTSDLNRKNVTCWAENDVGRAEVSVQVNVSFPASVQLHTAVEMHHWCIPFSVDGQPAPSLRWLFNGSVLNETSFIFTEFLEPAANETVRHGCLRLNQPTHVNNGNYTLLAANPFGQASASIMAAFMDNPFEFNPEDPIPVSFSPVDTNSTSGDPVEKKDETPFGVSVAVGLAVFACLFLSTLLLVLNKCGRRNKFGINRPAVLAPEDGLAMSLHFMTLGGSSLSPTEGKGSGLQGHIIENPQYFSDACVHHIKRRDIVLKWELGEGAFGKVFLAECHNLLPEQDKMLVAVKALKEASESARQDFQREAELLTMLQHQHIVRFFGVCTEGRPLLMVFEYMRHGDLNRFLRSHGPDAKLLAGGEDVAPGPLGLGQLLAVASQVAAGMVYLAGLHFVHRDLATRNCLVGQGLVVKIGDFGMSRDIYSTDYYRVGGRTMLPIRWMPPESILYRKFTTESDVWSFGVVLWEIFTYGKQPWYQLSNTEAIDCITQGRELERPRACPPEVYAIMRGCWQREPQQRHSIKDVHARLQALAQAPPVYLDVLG

PTK6 (human) = PTK6 (human) (UniProt Q13882)
Chain of PTK6 (human) (Q13882 whole entry, looked up): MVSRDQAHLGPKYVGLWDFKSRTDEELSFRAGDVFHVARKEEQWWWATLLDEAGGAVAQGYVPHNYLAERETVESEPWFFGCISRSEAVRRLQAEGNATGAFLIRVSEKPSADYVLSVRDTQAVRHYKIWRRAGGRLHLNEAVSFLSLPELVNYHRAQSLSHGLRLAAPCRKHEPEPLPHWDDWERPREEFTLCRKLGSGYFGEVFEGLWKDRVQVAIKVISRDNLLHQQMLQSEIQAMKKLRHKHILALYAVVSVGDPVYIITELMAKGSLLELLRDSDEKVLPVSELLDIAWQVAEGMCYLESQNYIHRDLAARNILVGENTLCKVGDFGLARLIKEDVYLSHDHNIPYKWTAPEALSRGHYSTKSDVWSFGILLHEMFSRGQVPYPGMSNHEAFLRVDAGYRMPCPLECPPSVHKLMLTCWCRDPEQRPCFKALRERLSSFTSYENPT

PKN1 (human) = PKN1 (human) (UniProt Q16512)
RAF1 (human) = RAF1 (human) (UniProt P04049)
CDK7 (human) = CDK7 (human) (UniProt P50613)
DYRK1B (human) = DYRK1B (human) (UniProt Q9Y463)
ROS1 (human) = ROS1 (human) (UniProt P08922)
HUNK (human) = HUNK (human) (UniProt P57058)
PRKX (human) = PRKX (human) (UniProt P51817)
Chain of PRKX (human) (P51817 whole entry, looked up): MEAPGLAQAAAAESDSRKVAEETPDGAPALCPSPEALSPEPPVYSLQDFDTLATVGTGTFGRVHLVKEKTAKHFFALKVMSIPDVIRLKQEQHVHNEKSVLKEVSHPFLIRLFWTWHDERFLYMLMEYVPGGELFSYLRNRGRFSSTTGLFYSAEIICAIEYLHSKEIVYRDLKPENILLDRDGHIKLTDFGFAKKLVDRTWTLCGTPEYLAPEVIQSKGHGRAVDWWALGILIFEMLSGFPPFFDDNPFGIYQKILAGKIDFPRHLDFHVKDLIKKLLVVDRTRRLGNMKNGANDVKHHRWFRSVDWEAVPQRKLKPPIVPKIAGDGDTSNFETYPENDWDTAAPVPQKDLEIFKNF

MAPK10 (human) = MAPK10 (human) (UniProt P53779)
Chain of MAPK10 (human) (P53779 whole entry, looked up): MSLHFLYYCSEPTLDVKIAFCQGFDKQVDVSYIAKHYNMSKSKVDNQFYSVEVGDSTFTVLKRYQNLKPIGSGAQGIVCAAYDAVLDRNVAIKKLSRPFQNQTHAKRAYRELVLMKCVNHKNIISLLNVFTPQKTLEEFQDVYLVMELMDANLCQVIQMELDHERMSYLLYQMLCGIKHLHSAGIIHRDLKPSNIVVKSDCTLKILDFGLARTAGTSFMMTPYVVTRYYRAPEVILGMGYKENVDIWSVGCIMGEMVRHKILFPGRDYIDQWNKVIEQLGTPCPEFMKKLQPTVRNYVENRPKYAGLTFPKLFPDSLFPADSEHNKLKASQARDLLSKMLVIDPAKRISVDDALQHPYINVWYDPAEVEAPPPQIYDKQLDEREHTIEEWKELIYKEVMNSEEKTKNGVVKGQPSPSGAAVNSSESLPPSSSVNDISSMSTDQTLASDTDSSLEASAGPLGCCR

DCLK2 (human) = DCLK2 (human) (UniProt Q8N568)
YES1 (human) = YES1 (human) (UniProt P07947)
EPHA6 (human) = EPHA6 (human) (UniProt Q9UF33)
MERTK (human) = MERTK (human) (UniProt Q12866)
PRKCD (human) = PRKCD (human) (UniProt Q05655)
ALK (human) = ALK (human) (UniProt Q9UM73)
CSNK1G1 (human) = CSNK1G1 (human) (UniProt Q9HCP0)
MKNK2 (human) = MKNK2 (human) (UniProt Q9HBH9)
Chain of MKNK2 (human) (Q9HBH9 whole entry, looked up): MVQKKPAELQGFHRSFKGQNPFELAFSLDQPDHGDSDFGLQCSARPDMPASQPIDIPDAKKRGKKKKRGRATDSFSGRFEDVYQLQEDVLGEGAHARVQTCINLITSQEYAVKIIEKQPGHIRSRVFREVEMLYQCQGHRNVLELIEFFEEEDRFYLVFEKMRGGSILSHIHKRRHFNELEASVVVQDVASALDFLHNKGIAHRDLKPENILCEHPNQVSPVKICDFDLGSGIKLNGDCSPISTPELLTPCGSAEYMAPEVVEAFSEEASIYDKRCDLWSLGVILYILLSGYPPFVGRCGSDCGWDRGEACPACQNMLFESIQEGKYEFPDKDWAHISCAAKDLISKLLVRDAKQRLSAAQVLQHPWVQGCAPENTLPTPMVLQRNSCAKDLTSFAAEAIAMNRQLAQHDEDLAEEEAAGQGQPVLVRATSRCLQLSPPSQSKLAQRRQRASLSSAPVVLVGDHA

CDC42BPB (human) = CDC42BPB (human) (UniProt Q9Y5S2)
Chain of CDC42BPB (human) (Q9Y5S2 whole entry, looked up): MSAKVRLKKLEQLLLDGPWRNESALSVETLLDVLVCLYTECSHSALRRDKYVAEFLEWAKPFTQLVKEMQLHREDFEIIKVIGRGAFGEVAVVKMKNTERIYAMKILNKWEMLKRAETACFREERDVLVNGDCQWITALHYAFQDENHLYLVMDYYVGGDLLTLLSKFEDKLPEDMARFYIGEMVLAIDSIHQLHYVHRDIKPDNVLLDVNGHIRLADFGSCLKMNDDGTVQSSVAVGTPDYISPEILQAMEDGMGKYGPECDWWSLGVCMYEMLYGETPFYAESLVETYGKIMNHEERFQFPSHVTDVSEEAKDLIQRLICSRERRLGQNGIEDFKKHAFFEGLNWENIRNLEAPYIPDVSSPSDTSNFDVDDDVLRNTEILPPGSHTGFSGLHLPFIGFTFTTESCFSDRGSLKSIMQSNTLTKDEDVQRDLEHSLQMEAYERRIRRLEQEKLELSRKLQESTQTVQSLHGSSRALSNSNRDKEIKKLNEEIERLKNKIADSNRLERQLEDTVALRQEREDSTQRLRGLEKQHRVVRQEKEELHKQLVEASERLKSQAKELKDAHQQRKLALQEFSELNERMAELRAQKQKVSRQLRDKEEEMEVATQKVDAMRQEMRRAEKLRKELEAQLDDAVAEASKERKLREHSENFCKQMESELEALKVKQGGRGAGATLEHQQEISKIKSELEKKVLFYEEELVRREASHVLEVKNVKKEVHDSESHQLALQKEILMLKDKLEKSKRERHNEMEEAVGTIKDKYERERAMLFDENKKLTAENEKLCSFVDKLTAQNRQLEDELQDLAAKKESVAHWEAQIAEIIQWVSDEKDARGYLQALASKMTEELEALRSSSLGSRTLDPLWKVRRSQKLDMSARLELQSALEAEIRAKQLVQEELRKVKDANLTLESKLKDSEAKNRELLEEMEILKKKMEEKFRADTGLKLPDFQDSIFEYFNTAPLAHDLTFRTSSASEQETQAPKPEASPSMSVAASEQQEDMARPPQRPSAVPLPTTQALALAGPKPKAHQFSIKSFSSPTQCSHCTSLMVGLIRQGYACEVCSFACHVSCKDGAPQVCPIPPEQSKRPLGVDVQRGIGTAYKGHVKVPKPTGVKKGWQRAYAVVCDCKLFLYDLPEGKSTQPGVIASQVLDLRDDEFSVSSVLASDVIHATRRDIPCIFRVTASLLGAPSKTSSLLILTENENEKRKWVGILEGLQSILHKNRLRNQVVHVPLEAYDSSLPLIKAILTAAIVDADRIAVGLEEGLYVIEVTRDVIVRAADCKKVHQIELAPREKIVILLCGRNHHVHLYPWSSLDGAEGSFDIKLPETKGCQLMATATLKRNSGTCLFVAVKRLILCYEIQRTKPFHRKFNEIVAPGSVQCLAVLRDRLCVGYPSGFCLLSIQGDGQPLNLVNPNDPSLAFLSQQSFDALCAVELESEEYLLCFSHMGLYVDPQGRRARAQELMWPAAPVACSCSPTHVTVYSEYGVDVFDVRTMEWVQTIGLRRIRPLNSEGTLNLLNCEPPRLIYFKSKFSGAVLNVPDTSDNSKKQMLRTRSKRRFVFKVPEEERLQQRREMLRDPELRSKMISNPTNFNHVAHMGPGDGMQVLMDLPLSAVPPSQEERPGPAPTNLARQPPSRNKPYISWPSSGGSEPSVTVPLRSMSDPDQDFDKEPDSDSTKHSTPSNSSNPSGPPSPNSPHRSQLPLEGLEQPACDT

NTRK2 (human) = NTRK2 (human) (UniProt Q16620)
Chain of NTRK2 (human) (Q16620 whole entry, looked up): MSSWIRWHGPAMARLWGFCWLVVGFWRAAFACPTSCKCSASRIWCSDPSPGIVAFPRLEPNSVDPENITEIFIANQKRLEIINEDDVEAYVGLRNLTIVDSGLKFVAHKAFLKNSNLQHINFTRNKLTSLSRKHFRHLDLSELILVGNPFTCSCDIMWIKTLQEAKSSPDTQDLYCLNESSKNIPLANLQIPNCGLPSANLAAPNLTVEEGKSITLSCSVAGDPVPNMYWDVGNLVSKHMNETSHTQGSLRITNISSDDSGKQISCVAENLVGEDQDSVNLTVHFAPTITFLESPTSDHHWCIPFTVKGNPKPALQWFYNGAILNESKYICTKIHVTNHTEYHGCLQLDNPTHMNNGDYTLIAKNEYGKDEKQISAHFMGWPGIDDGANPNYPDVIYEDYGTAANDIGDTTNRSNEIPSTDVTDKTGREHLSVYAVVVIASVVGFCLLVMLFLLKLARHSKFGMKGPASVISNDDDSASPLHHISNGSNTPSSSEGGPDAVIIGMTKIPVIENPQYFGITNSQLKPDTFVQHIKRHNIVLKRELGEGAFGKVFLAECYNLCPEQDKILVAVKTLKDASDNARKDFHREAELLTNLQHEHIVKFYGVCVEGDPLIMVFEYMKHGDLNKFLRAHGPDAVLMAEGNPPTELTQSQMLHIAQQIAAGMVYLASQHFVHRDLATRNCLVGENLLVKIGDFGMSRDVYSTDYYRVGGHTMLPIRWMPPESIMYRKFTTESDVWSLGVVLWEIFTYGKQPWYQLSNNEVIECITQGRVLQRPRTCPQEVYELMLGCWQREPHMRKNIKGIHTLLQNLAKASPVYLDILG

PKN2 (human) = PKN2 (human) (UniProt Q16513)
PAK4 (human) = PAK4 (human) (UniProt O96013)
MARK2 (human) = MARK2 (human) (UniProt Q7KZI7)
MAP3K1 (human) = MAP3K1 (human) (UniProt Q13233)
EPHB6 (human) = EPHB6 (human) (UniProt O15197)
BMPR2 (human) = BMPR2 (human) (UniProt Q13873)

SMILES | kinase still bound, per cent of control (SIK2 (human)) [%] | kinase still bound, per cent of control (CDK5 (human)) [%] | kinase still bound, per cent of control (RPS6KA5 KD1 (human)) [%] | kinase still bound, per cent of control (LCK (human)) [%] | kinase still bound, per cent of control (GAK (human)) [%] | kinase still bound, per cent of control (MELK (human)) [%] | kinase still bound, per cent of control [2] [%] | kinase still bound, per cent of control (MAP3K7 (human)) [%] | kinase still bound, per cent of control (ADCK4 (human)) [%] | kinase still bound, per cent of control (STK11 (human)) [%] | kinase still bound, per cent of control (CAMK2B (human)) [%] | kinase still bound, per cent of control (GRK1 (human)) [%] | kinase still bound, per cent of control (MAK (human)) [%] | kinase still bound, per cent of control (NTRK1 (human)) [%] | kinase still bound, per cent of control (PTK6 (human)) [%] | kinase still bound, per cent of control (PKN1 (human)) [%] | kinase still bound, per cent of control (RAF1 (human)) [%] | kinase still bound, per cent of control (DYRK1B (human)) [%] | kinase still bound, per cent of control (ROS1 (human)) [%] | kinase still bound, per cent of control (HUNK (human)) [%] | also measured
COc1cc(C(=O)N2CCC(N3CCN(C)CC3)CC2)ccc1Nc1ncc2c(n1)N(C)c1ccccc1C(=O)N2C | 98 | 81 | 96 | 100 | 16 | 100 | 99 | 98 | 94 | 96 | 62 | 91 | 72 | 69 | 58 | 100 | 100 | 94 | 12 | 100 | kinase still bound, per cent of control [1]: 84%; kinase still bound, per cent of control (CDK7 (human)): 86%; kinase still bound, per cent of control (PRKX (human)): 99%; kinase still bound, per cent of control (MAPK10 (human)): 77%; kinase still bound, per cent of control (DCLK2 (human)): 0.45%; kinase still bound, per cent of control (YES1 (human)): 100%; kinase still bound, per cent of control (EPHA6 (human)): 89%; kinase still bound, per cent of control (MERTK (human)): 100%; kinase still bound, per cent of control (PRKCD (human)): 75%; kinase still bound, per cent of control (ALK (human)): 13%; kinase still bound, per cent of control (CSNK1G1 (human)): 100%; kinase still bound, per cent of control (MKNK2 (human)): 1.2%; kinase still bound, per cent of control (CDC42BPB (human)): 100%; kinase still bound, per cent of control (NTRK2 (human)): 100%; kinase still bound, per cent of control (PKN2 (human)): 95%; kinase still bound, per cent of control (PAK4 (human)): 94%; kinase still bound, per cent of control (MARK2 (human)): 100%; kinase still bound, per cent of control (MAP3K1 (human)): 95%; kinase still bound, per cent of control (EPHB6 (human)): 31%; kinase still bound, per cent of control (BMPR2 (human)): 87%
COc1cc2ncn(-c3cc(OCc4ccccc4C(F)(F)F)c(C(N)=O)s3)c2cc1OC | 26 | 100 | 100 | 34 | 4.1 | 61 | 100 | 66 | 71 | 37 | 75 | 96 | 100 | 78 | 84 | 76 | 87 | 87 | 78 | 82 | kinase still bound, per cent of control (PRKX (human)): 98%; kinase still bound, per cent of control (MAPK10 (human)): 89%; kinase still bound, per cent of control (DCLK2 (human)): 99%; kinase still bound, per cent of control (YES1 (human)): 97%; kinase still bound, per cent of control (EPHA6 (human)): 59%; kinase still bound, per cent of control (MERTK (human)): 7%; kinase still bound, per cent of control (PRKCD (human)): 100%; kinase still bound, per cent of control (ALK (human)): 100%; kinase still bound, per cent of control (CSNK1G1 (human)): 86%; kinase still bound, per cent of control (MKNK2 (human)): 76%; kinase still bound, per cent of control (CDC42BPB (human)): 64%; kinase still bound, per cent of control (NTRK2 (human)): 59%; kinase still bound, per cent of control (PKN2 (human)): 39%; kinase still bound, per cent of control (PAK4 (human)): 100%; kinase still bound, per cent of control (MARK2 (human)): 50%; kinase still bound, per cent of control (MAP3K1 (human)): 1.6%; kinase still bound, per cent of control (EPHB6 (human)): 9.9%; kinase still bound, per cent of control (BMPR2 (human)): 69%
